# Legend:
# [1] = test system: persistent and neuropathic pain; conditions: animal studies; cited from earlier work
# [2] = test system: human neuropathic pain; conditions: in the clinic; cited from earlier work
# [3] = test system: rats with formalin injection into one hindpaw; test: Mechanical conflict device (MCD) test, inflammatory pain from formalin injection into one hindpaw; type: in vivo, rat; conditions: formalin 0.2%, s.c. into one hindpaw, morphine 2.5 mg/kg i.p.
# Description: (§1) The mechanical conflict device can be used in various methods. With reference now to FIGS. 3-7, the MCD 10 of the present technology can be used to measure the response of a laboratory animal 17, such as a rat, to noxious mechanical stimuli. In this test, exit or escape from an aversive environment to a preferred environment is deterred by a noxious mechanical stimulus represented by the pins 60 on a raised pin platform 80, as shown in FIG. 6. In an initial MCD 10 training period, the pins 60 are lowered below the alley floor 50 and the laboratory animal 17 is placed into the holding compartment 20. […] The holding compartment 20 and the alley compartment 30 can be illuminated with normal room lighting. In some embodiments, the holding compartment 20 and/or the alley compartment 30 are supplemented by a light source 220, for example, a high-intensity, white-light LED array positioned above the alley compartment 30, as shown in FIGS. 3-6. At that time, panel walls 110 and 120 can be raised to allow the laboratory animal 17 to learn that it can exit from the mildly aversive stimuli (the light 220) in the holding compartment 20 and alley compartment 30 and move across the floor 50, passing into the more comfortable compensatory compartment 40 where it is generally dim and provides the laboratory animal 17 with a generally more rewarding area. […]
# [4] = test system: CCI rats; test: Mechanical conflict device (MCD) test, neuropathic pain from chronic constriction injury (CCI) of the left sciatic nerve; type: in vivo, rat; conditions: pregabalin 10 and 30 mg/kg, i.p.
# Description: as §1
structure (smiles),measurement,setting,value
COc1ccccc1CN(C[C@@H](Cc1c[nH]c2ccccc12)NC(=O)CN1CCC(N2CCCCC2)CC1)C(C)=O [LY 303870],Relief of persistent and neuropathic pain,[1],did relieve persistent and neuropathic pain
same,Analgesia against human neuropathic pain,[2],failed
CN1CC[C@]23c4c5ccc(O)c4O[C@H]2[C@@H](O)C=C[C@H]3[C@H]1C5 [morphine],Increased latency to exit produced by formalin injection,[3]; FIG. 14,not reduced
same,Increased time spent on the stimulus array produced by formalin injection,[3]; FIG. 15,attenuated
CC(C)C[C@H](CN)CC(=O)O [pregabalin],Latency to exit (light chamber),[4]; FIG. 12,modulated
same,Time spent on the stimulus array,[4]; FIG. 13,not modulated
